Experimental data: paper PMC9475448, “What a difference a methylene makes: replacing Glu with Asp or Aad in the Lys-urea-Glu pharmacophore of PSMA-targeting radioligands to reduce kidney and salivary gland uptake” (Theranostics, 2022)
“Also recorded” adds a separate entry of the source. Like-named read-outs stand apart in the source and are kept apart here.

Experiments:
[1] = tested on: LNCaP tumor and major mouse organs/tissues; assay: Radiation dosimetry calculation with OLINDA software from biodistribution data; settings: 25-g mouse
Text: The biodistribution data (available in the Supplemental Table s 5- 6) were used to determine the kinetics input values required by OLINDA. First, each of the values was decayed to its corresponding time point (the values on the table are shown at injection time). Then the different time-points of the uptake data (%IA/g) for each organ were fitted to both mono- exponential ( ) and bi-exponential ( ) functions using in-house software developed in Python. The best fit was selected based on maximizing the coefficient of determination (R2) of the fit and minimizing the residuals. The areas under the curves were analytically calculated based on the parameters obtained from the best fit of each organ and this provided the kinetic input values required by OLINDA.
In the mouse case, the adrenals, blood, fat, and muscle are not modeled in the phantom. These organs were grouped together and included in what OLINDA calls the remainder of the body .
Lastly, the numbers of decays in the tumors were also calculated based on the biodistribution data of the mice and the values were inputted into the sphere model available in OLINDA.

[2] = tested on: LNCaP tumor-bearing mice; assay: Longitudinal SPECT/CT imaging of 177Lu-labeled ligands; format: in vivo
Experimental: SPECT/CT imaging experiments were conducted using the MILabs (Utrecht, The Netherlands) U-SPECT-II/CT scanner. Each tumor-bearing mouse (n = 1-2 was injected with ∼37 MBq (50-250 pmol) of ^177Lu-labeled compound through a lateral caudal tail vein. The mice were imaged at 1, 4, 24, 72, and 120 h after injection. At each time point, a 5-min CT scan was conducted first for anatomical reference followed by 2 × 30-min static emission scans acquired in list mode.

[3] = tested on: LNCaP tumor-bearing mice; settings: mouse, in vivo
[4] = tested on: LNCaP tumor-bearing mice; assay: Radioligand therapy study in LNCaP tumor-bearing NRG mice
[5] = tested on: LNCaP tumor-bearing mice; assay: Ex vivo biodistribution of 177Lu-labeled ligands in LNCaP tumor-bearing NRG mice
[6] = 1 h post-injection, listed as [177Lu]Lu-HTK03149
[7] = 4 h post-injection, listed as [177Lu]Lu-HTK03149

Question: What does the source list for `O=C([O-])CN1CCN(CC(=O)[O-])CCN(CC(=O)NCC2CCC(C(=O)NC(Cc3c4ccccc4cc4ccccc34)C(=O)NCCCCC(NC(=O)NC(CCCC(=O)O)C(=O)O)C(=O)O)CC2)CCN(CC(=O)[O-])CC1.[177Lu+3]` (centres unmarked) [[^177Lu]Lu-HTK03149]?
Answer: Kinetics value ([1]; source organ Brain): 2.23E-03 MBq-h/MBq; Kinetics value ([1]; source organ Cortical bone): 7.60E-02 MBq-h/MBq; Kinetics value ([1]; source organ Heart contents): 1.94E-02 MBq-h/MBq; Kinetics value ([1]; source organ Kidneys): 2.41E-01 MBq-h/MBq; Kinetics value ([1]; source organ Large intestine): 9.24E-02 MBq-h/MBq; Kinetics value ([1]; source organ Liver): 3.91E-01 MBq-h/MBq; Kinetics value ([1]; source organ Lungs): 1.72E-02 MBq-h/MBq; Kinetics value ([1]; source organ Pancreas): 1.79E-02 MBq-h/MBq; Kinetics value ([1]; source organ Remainder of the body): 5.31E-01 MBq-h/MBq; Kinetics value ([1]; source organ Small intestine): 2.76E-01 MBq-h/MBq; Kinetics value ([1]; source organ Spleen): 2.30E-02 MBq-h/MBq; Kinetics value ([1]; source organ Stomach): 8.07E-03 MBq-h/MBq; Kinetics value ([1]; source organ Testes): 1.29E-02 MBq-h/MBq; Kinetics value ([1]; source organ Thyroid): 2.03E-03 MBq-h/MBq; Kinetics value ([1]; source organ Urinary bladder contents): 8.14E-01 MBq-h/MBq; Excretion pathway (SPECT imaging) ([2]; mouse, in vivo): excreted mainly through the renal pathway; also recorded: excreted mainly via the renal pathway; Tumor size change in SPECT/CT images ([2]; ~37 MBq injected): tumors shrank from Day 1 to Day 5; Spleen uptake [3]: 0.142 ± 0.062 %IA/g; Median survival ([4]; 9.3 MBq injected): 52 days; Median survival ([4]; 18.5 MBq injected): 63 days; Median survival ([4]; 37 MBq injected): 88 days; Median survival ([4]; 74 MBq injected): 142 days; Median survival ([4]; 148 MBq injected): >180 days; Weight loss of treated mice ([4]; injected radioactivity as high as 148 MBq): did not observe any weight loss; Adrenal glands uptake ([5]; 1 h post-injection): 0.352 ± 0.071 %IA/g; Blood uptake ([5]; 1 h post-injection): 0.876 ± 0.073 %IA/g; Blood:Salivary gland uptake ratio ([5]; 1 h post-injection): 3.98 ± 0.65; Bone uptake ([5]; 1 h post-injection): 0.072 ± 0.020 %IA/g; Brain uptake ([5]; 1 h post-injection): 0.022 ± 0.002 %IA/g; Fat uptake ([5]; 1 h post-injection): 0.136 ± 0.049 %IA/g; Heart uptake ([5]; 1 h post-injection): 0.281 ± 0.036 %IA/g; Intestines uptake ([5]; 1 h post-injection): 0.267 ± 0.063 %IA/g; Kidneys uptake ([5]; 1 h post-injection): 7.67±1.35 %IA/g; Lacrimal glands uptake ([5]; 1 h post-injection): 0.022 ± 0.006 %IA/g; Liver uptake ([5]; 1 h post-injection): 0.264 ± 0.031 %IA/g; Lungs uptake ([5]; 1 h post-injection): 0.721 ± 0.056 %IA/g; Muscle uptake ([5]; 1 h post-injection): 0.182 ± 0.138 %IA/g; Pancreas uptake ([5]; 1 h post-injection): 0.165 ± 0.028 %IA/g; Salivary glands uptake ([5]; 1 h post-injection): 0.23±0.06 %IA/g; Spleen uptake ([5]; 1 h post-injection): 0.260 ± 0.045 %IA/g; Stomach uptake ([5]; 1 h post-injection): 0.096 ± 0.020 %IA/g; Testes uptake ([5]; 1 h post-injection): 0.255 ± 0.019 %IA/g; Thyroid uptake ([5]; 1 h post-injection): 0.269 ± 0.021 %IA/g; Tumor uptake ([5]; 1 h post-injection): 13.96 ± 2.155 %IA/g; Tumor:Blood uptake ratio ([5]; 1 h post-injection): 16.0 ± 2.44; Tumor:Muscle uptake ratio ([5]; 1 h post-injection): 101 ± 48.3; Tumor:Salivary gland uptake ratio ([5]; 1 h post-injection): 63.4 ± 13.6; Kidneys uptake [5, 6]: 7.672 ± 1.346 %IA/g; Salivary glands uptake [5, 6]: 0.227 ± 0.062 %IA/g; Adrenal glands uptake ([5]; 4 h post-injection): 0.085 ± 0.007 %IA/g; Blood uptake ([5]; 4 h post-injection): 0.167 ± 0.033 %IA/g; Blood:Salivary gland uptake ratio ([5]; 4 h post-injection): 3.32 ± 0.59; Bone uptake ([5]; 4 h post-injection): 0.016 ± 0.010 %IA/g; Brain uptake ([5]; 4 h post-injection): 0.010 ± 0.001 %IA/g; Fat uptake ([5]; 4 h post-injection): 0.021 ± 0.003 %IA/g; Heart uptake ([5]; 4 h post-injection): 0.070 ± 0.013 %IA/g; Intestines uptake ([5]; 4 h post-injection): 0.185 ± 0.067 %IA/g; Kidneys uptake ([5]; 4 h post-injection): 1.67±0.38 %IA/g; Lacrimal glands uptake ([5]; 4 h post-injection): 0.029 ± 0.014 %IA/g; Liver uptake ([5]; 4 h post-injection): 0.108 ± 0.010 %IA/g; Lungs uptake ([5]; 4 h post-injection): 0.169 ± 0.012 %IA/g; Muscle uptake ([5]; 4 h post-injection): 0.021 ± 0.005 %IA/g; Pancreas uptake ([5]; 4 h post-injection): 0.034 ± 0.004 %IA/g; Salivary glands uptake ([5]; 4 h post-injection): 0.05±0.01 %IA/g; Spleen uptake ([5]; 4 h post-injection): 0.089 ± 0.020 %IA/g; Stomach uptake ([5]; 4 h post-injection): 0.049 ± 0.021 %IA/g; Testes uptake ([5]; 4 h post-injection): 0.056 ± 0.005 %IA/g; Thyroid uptake ([5]; 4 h post-injection): 0.066 ± 0.008 %IA/g; Tumor uptake ([5]; 4 h post-injection): 20.9±2.99 %IA/g; Tumor:Muscle uptake ratio ([5]; 4 h post-injection): 1028 ± 227; Tumor:Salivary gland uptake ratio ([5]; 4 h post-injection): 415 ± 60.5; Kidneys uptake [5, 7]: 1.666 ± 0.378 %IA/g; Salivary glands uptake [5, 7]: 0.051 ± 0.010 %IA/g; Tumor uptake [5, 7]: 20.90 ± 2.988 %IA/g; Adrenal glands uptake ([5]; 24 h post-injection): 0.073 ± 0.018 %IA/g; Blood uptake ([5]; 24 h post-injection): 0.116 ± 0.007 %IA/g; Blood:Salivary gland uptake ratio ([5]; 24 h post-injection): 2.37 ± 0.24; Bone uptake ([5]; 24 h post-injection): 0.025 ± 0.003 %IA/g; Brain uptake ([5]; 24 h post-injection): 0.006 ± 0.001 %IA/g; Fat uptake ([5]; 24 h post-injection): 0.017 ± 0.002 %IA/g; Heart uptake ([5]; 24 h post-injection): 0.065 ± 0.004 %IA/g; Intestines uptake ([5]; 24 h post-injection): 0.086 ± 0.047 %IA/g; Kidneys uptake ([5]; 24 h post-injection): 0.596 ± 0.109 %IA/g; Lacrimal glands uptake ([5]; 24 h post-injection): 0.004 ± 0.005 %IA/g; Liver uptake ([5]; 24 h post-injection): 0.103 ± 0.008 %IA/g; Lungs uptake ([5]; 24 h post-injection): 0.122 ± 0.015 %IA/g; Muscle uptake ([5]; 24 h post-injection): 0.017 ± 0.003 %IA/g; Pancreas uptake ([5]; 24 h post-injection): 0.032 ± 0.005 %IA/g; Salivary glands uptake ([5]; 24 h post-injection): 0.049 ± 0.007 %IA/g; Spleen uptake ([5]; 24 h post-injection): 0.085 ± 0.012 %IA/g; Stomach uptake ([5]; 24 h post-injection): 0.125 ± 0.112 %IA/g; Testes uptake ([5]; 24 h post-injection): 0.047 ± 0.003 %IA/g; Thyroid uptake ([5]; 24 h post-injection): 0.060 ± 0.002 %IA/g; Tumor uptake ([5]; 24 h post-injection): 13.80 ± 2.876 %IA/g; Tumor:Blood uptake ratio ([5]; 24 h post-injection): 120 ± 31.1; Tumor:Muscle uptake ratio ([5]; 24 h post-injection): 842 ± 216; Tumor:Salivary gland uptake ratio ([5]; 24 h post-injection): 286 ± 88.4; Adrenal glands uptake ([5]; 72 h post-injection): 0.124 ± 0.052 %IA/g; Blood uptake ([5]; 72 h post-injection): 0.067 ± 0.016 %IA/g; Blood:Salivary gland uptake ratio ([5]; 72 h post-injection): 1.45 ± 0.69; Bone uptake ([5]; 72 h post-injection): 0.026 ± 0.011 %IA/g; Brain uptake ([5]; 72 h post-injection): 0.003 ± 0.002 %IA/g; Fat uptake ([5]; 72 h post-injection): 0.042 ± 0.042 %IA/g; Heart uptake ([5]; 72 h post-injection): 0.060 ± 0.014 %IA/g; Intestines uptake ([5]; 72 h post-injection): 0.088 ± 0.034 %IA/g; Kidneys uptake ([5]; 72 h post-injection): 0.679 ± 0.387 %IA/g; Lacrimal glands uptake ([5]; 72 h post-injection): 0.006 ± 0.007 %IA/g; Liver uptake ([5]; 72 h post-injection): 0.130 ± 0.034 %IA/g; Lungs uptake ([5]; 72 h post-injection): 0.108 ± 0.022 %IA/g; Muscle uptake ([5]; 72 h post-injection): 0.018 ± 0.003 %IA/g; Pancreas uptake ([5]; 72 h post-injection): 0.033 ± 0.002 %IA/g; Salivary glands uptake ([5]; 72 h post-injection): 0.051 ± 0.016 %IA/g; Stomach uptake ([5]; 72 h post-injection): 0.140 ± 0.104 %IA/g; Testes uptake ([5]; 72 h post-injection): 0.053 ± 0.008 %IA/g; Thyroid uptake ([5]; 72 h post-injection): 0.079 ± 0.008 %IA/g; Tumor uptake ([5]; 72 h post-injection): 17.1±4.70 %IA/g; Tumor:Blood uptake ratio ([5]; 72 h post-injection): 258 ± 74.7; Tumor:Muscle uptake ratio ([5]; 72 h post-injection): 985 ± 342; Tumor:Salivary gland uptake ratio ([5]; 72 h post-injection): 349 ± 109; Tumor uptake ([5]; 72 h post-injection, listed as [177Lu]Lu-HTK03149): 17.12 ± 4.702 %IA/g; Adrenal glands uptake ([5]; 120 h post-injection): 0.024 ± 0.027 %IA/g; Blood uptake ([5]; 120 h post-injection): 0.021 ± 0.006 %IA/g; Blood:Salivary gland uptake ratio ([5]; 120 h post-injection): 0.75 ± 0.19; Bone uptake ([5]; 120 h post-injection): 0.015 ± 0.007 %IA/g; Brain uptake ([5]; 120 h post-injection): 0.002 ± 0.001 %IA/g; Fat uptake ([5]; 120 h post-injection): 0.014 ± 0.009 %IA/g; Heart uptake ([5]; 120 h post-injection): 0.034 ± 0.014 %IA/g; Intestines uptake ([5]; 120 h post-injection): 0.069 ± 0.046 %IA/g; Kidneys uptake ([5]; 120 h post-injection): 0.276 ± 0.064 %IA/g; Lacrimal glands uptake ([5]; 120 h post-injection): 0.001 ± 0.002 %IA/g; Liver uptake ([5]; 120 h post-injection): 0.079 ± 0.041 %IA/g; Lungs uptake ([5]; 120 h post-injection): 0.086 ± 0.076 %IA/g; Muscle uptake ([5]; 120 h post-injection): 0.012 ± 0.004 %IA/g; Pancreas uptake ([5]; 120 h post-injection): 0.020 ± 0.007 %IA/g; Salivary glands uptake ([5]; 120 h post-injection): 0.029 ± 0.007 %IA/g; Spleen uptake ([5]; 120 h post-injection): 0.129 ± 0.079 %IA/g; Stomach uptake ([5]; 120 h post-injection): 0.084 ± 0.041 %IA/g; Testes uptake ([5]; 120 h post-injection): 0.033 ± 0.012 %IA/g; Thyroid uptake ([5]; 120 h post-injection): 0.044 ± 0.015 %IA/g; Tumor uptake ([5]; 120 h post-injection): 16.39 ± 10.99 %IA/g; Tumor:Blood uptake ratio ([5]; 120 h post-injection): 780 ± 451; Tumor:Muscle uptake ratio ([5]; 120 h post-injection): 1336 ± 566; Tumor:Salivary gland uptake ratio ([5]; 120 h post-injection): 533 ± 218
